# Tested on: gut microbiota
# Experiment: Gut microbiome analysis (16S rRNA sequencing of fecal samples) in STAM model of NASH
# Format: in vivo, C57BL/6J mice
# Details: pre (baseline)
# Description: The study is reported in accordance with Animal Research: Reporting of In Vivo Experiments (ARRIVE) guidelines. C57BL/6J mice were obtained from Japan SLC, Inc. (Japan). All animals used in this study were cared for under the following guidelines: Act on Welfare and Management of Animals (Ministry of the Environment, Japan, Act No. 105 of Oct. 1, 1973), standards relating to the care and management of laboratory animals and relief of pain (Notice No. 88 of the Ministry of the Environment, Japan, Apr. 28, 2006) and the guidelines for proper conduct of animal experiments (Science Council of Japan, Jun. 1, 2006). Protocol approvals were obtained from SMC Laboratories, Japan's IACUC (Study reference no: […] Mice were maintained in a specific pathogen-free (SPF) facility under controlled conditions of temperature (23±3° C.), humidity (50±20%), lighting (12-hour artificial light and dark cycles; light from 8:00 to 20:00) and air exchange. The STAM model of NASH was induced as previously described [D10]. Mice were given a single subcutaneous injection of 200 μg streptozotocin (STZ, Sigma-Aldrich, USA) solution 2 days after birth and fed with a high-fat diet (HFD, 57 kcal % fat, Cat #HFD32, CLEA Japan, Inc., Japan) from 4-9 weeks of age. All mice develop liver steatosis and diabetes and at […] mice had established steatohepatitis, histologically. Studygroups: There were five study groups, described below. Eight mice were included in each study group. Eight NASH mice were orally administered vehicle supplemented with AFO-202 Beta Glucan at a dose of 1 mg/kg in a volume of 5 mL/kg once daily from 6 to 9 weeks of age. Eight NASH mice were orally administered vehicle supplemented with Telmisartan at a dose of 10 mg/kg once daily from 6 to 9 weeks of age. Frequency: Fecal samples were collected at the 6 weeks of age (before administration) and 9 weeks of age (before sacrifice). Procedure: At 6 weeks of age, fecal samples were collected from each mouse by clean catch method. […] A sterile petri dish was placed on the bench. Gently massage the abdomen, position the bottom of mouse over a fresh petri dish, and collect 1-2 fecal pellets. At sacrifice, fecal samples were aseptically collected from cecum. The tubes with feces were placed on ice immediately. These tubes were snap frozen in liquid nitrogen and stored at -80° C. for shipping. In this analysis, the 16S rRNA sequence data acquired by the next-generation sequencer from the fecal […] was used to perform community analysis using the QIIME2 program for microbial community analysis. The raw read data in FASTQ format output from the next-generation sequencer was trimmed to remove adapter sequences and low QV regions that may be included in the data. Cutadapt was used to remove adapter sequences from DNA sequencing reads. Trimmomatic was used as read trimming tool for Illumina NGS data. The adapter sequence was trimmed using the adapter trimming program “cutadapt” if the Trimming of the region at the end of the read sequence overlapped the corresponding sequence by at least one base (mismatch tolerance: 20%). When reads containing N were present in at least one of Read1 and Read2, both Read1 and Read2 were removed. Trimming of low QV regions was performed on the read data after processing using the QV trimming program “Trimmomatic” under the following conditions. The window of 20 bases is slid from the 5' side, and the area where the average QV is less than 20 is trimmed. After trimming, only the reads with more than 50 bases remaining in both Read1 and Read2 were taken as output. The microbial community analysis based on 16S rRNA sequence was performed on the sequence data trimmed in the previous section using the microbial community analysis program “QIIME2”. The annotation program “sklearn” included in QIIME2 is used to annotate the ASV (OTU) sequences. […]
compound,measurement,setting,value
CCCc1nc2c(C)cc(-c3nc4ccccc4n3C)cc2n1Cc1ccc(-c2ccccc2C(=O)O)cc1 [Telmisartan],"Abundance: S24-7, —, —",line r302,47
same,"Abundance: —, —, —",line r303,0
same,"Abundance: Ruminococcaceae, Oscillospira, —",line r304,35
same,"Abundance: Bacteroidaceae, Bacteroides, acidifaciens",line r305,0
same,"Abundance: Bacteroidaceae, Bacteroides, acidifaciens",line r306,0
same,"Abundance: Lachnospiraceae, Dorea, —",line r307,25
same,"Abundance: Ruminococcaceae, Other, Other",line r308,10
same,"Abundance: Lachnospiraceae, —, —",line r309,7
same,"Abundance: Lachnospiraceae, —, —",line r310,20
same,"Abundance: S24-7, —, —",line r311,1
same,"Abundance: Lachnospiraceae, Other, Other",line r312,14
same,"Abundance: —, —, —",line r313,0
same,"Abundance: Ruminococcaceae, Oscillospira, —",line r314,0
same,"Abundance: Ruminococcaceae, Oscillospira, —",line r315,42
same,"Abundance: Lachnospiraceae, —, —",line r316,14
same,"Abundance: Erysipelotrichaceae, —, —",line r317,0
same,"Abundance: Lachnospiraceae, —, —",line r319,13
same,"Abundance: Ruminococcaceae, Oscillospira, —",line r320,0
same,"Abundance: Lachnospiraceae, —, —",line r321,22
same,"Abundance: Other, Other, Other",line r322,49
same,"Abundance: F16, —, —",line r323,0
same,"Abundance: Christensenellaceae, —, —",line r324,19
same,"Abundance: Lachnospiraceae, Other, Other",line r325,0
same,"Abundance: Ruminococcaceae, Oscillospira, —",line r326,12
same,"Abundance: —, —, —",line r327,80
same,"Abundance: Ruminococcaceae, Other, Other",line r328,14
same,"Abundance: —, —, —",line r329,0
same,"Abundance: Lachnospiraceae, Other, Other",line r330,0
same,"Abundance: Other, Other, Other",line r331,0
same,"Abundance: Enterococcaceae, Vagococcus, —",line r332,0
same,"Abundance: Ruminococcaceae, Ruminococcus, —",line r333,23
same,"Abundance: Erysipelotrichaceae, Coprabacillus, —",line r334,11
same,"Abundance: Other, Other, Other",line r335,0
same,"Abundance: Ruminococcaceae, Oscillospira, —",line r336,11
same,"Abundance: Ruminococcaceae, Oscillospira, —",line r337,0
same,"Abundance: —, —, —",line r338,0
same,"Abundance: Lachnospiraceae, —, —",line r339,0
same,"Abundance: Ruminococcaceae, Oscillospira, —",line r340,0
same,"Abundance: Lachnospiraceae, Coprococcus, —",line r341,0
same,"Abundance: Ruminococcaceae, Other, Other",line r342,8
same,"Abundance: —, —, —",line r343,0
same,"Abundance: Erysipelotrichaceae, —, —",line r344,6
same,"Abundance: Rikenellaceae, —, —",line r345,0
same,"Abundance: —, —, —",line r346,0
same,"Abundance: —, —, —",line r347,0
same,"Abundance: —, —, —",line r348,8
same,"Abundance: Lachnospiraceae, —, —",line r349,0
same,"Abundance: —, —, —",line r350,15
same,"Abundance: Lachnospiraceae, Clostridium, Other",line r351,0
same,"Abundance: Erysipelotrichaceae, —, —",line r352,9
same,"Abundance: Streptococcaceae, Streptococcus, minor",line r353,9
same,"Abundance: Ruminococcaceae, Oscillospira, —",line r354,0
same,"Abundance: —, —, —",line r355,27
same,"Abundance: Lachnospiraceae, Other, Other",line r356,7
same,"Abundance: Other, Other, Other",line r357,36
same,"Abundance: —, —, —",line r358,0
same,"Abundance: —, —, —",line r359,0
same,"Abundance: —, —, —",line r360,0
same,"Abundance: Lachnospiraceae, —, —",line r362,7
same,"Abundance: Streptococcaceae, Streptococcus, —",line r363,0
same,"Abundance: S24-7, —, —",line r365,0
same,"Abundance: Other, Other, Other",line r367,0
same,"Abundance: [Mogibacteriaceae], —, —",line r368,0
same,"Abundance: Enterobacteriaceae, Enterobacter, Other",line r369,0
same,"Abundance: Erysipelotrichaceae, —, —",line r371,0
same,"Abundance: Aerococcaceae, Aerococcus, —",line r372,0
same,"Abundance: Ruminococcaceae, Oscillospira, —",line r373,0
same,"Abundance: Ruminococcaceae, Oscillospira, —",line r374,0
same,"Abundance: Other, Other, Other",line r375,5
same,"Abundance: Lachnospiraceae, Coprococcus, —",line r377,0
same,"Abundance: Other, Other, Other",line r378,35
same,"Abundance: Family Lachnospiraceae, Genus Other, Species Other",table row r380,11
same,"Abundance: Family Ruminococcaceae, Genus Oscillospira, Species —",table row r381,0
same,"Abundance: Family S24-7, Genus —, Species —",table row r382,0
same,"Abundance: Family Ruminococcaceae, Genus Ruminococcus, Species —",table row r383,0
same,"Abundance: Family Ruminococcaceae, Genus Oscillospira, Species —",table row r384,31
same,"Abundance: Family Ruminococcaceae, Genus Ruminococcus, Species —",table row r389,0
same,"Abundance: Family Lachnospiraceae, Genus —, Species —",table row r390,0
same,"Abundance: Family Ruminococcaceae, Genus Oscillospira, Species —",table row r391,0
same,"Abundance: Family Corynebacteriaceae, Genus Corynebacterium, Species stationis",table row r394,0
same,"Abundance: Family Ruminococcaceae, Genus Other, Species Other",table row r395,5
same,"Abundance: Family S24-7, Genus —, Species —",table row r396,0
same,"Abundance: Family Ruminococcaceae, Genus Oscillospira, Species —",table row r397,0
same,"Abundance: Family Ruminococcaceae, Genus Oscillospira, Species —",table row r398,0
same,"Abundance: Family Ruminococcaceae, Genus Ruminococcus, Species —",table row r399,0
same,"Abundance: Family [Mogibacteriaceae], Genus —, Species —",table row r400,0
same,"Abundance: Family Erysipelotrichaceae, Genus Coprobacillus, Species —",table row r401,0
same,"Abundance: Family Erysipelotrichaceae, Genus Clostridium, Species cocleatum",table row r402,0
same,"Abundance: Family S24-7, Genus —, Species —",table row r403,0
same,"Abundance: Family Coriobacteriaceae, Genus —, Species —",table row r404,0
same,"Abundance: Family Coriobacteriaceae, Genus Adlercreutzia, Species —",table row r405,0
same,"Abundance: Family Enterococcaceae, Genus Vagococcus, Species —",table row r407,0
same,"Abundance: Family [Mogibacteriaceae], Genus —, Species —",table row r409,0
same,"Abundance: Family S24-7, Genus —, Species —",table row r413,0
same,"Abundance: Family Ruminococcaceae, Genus Oscillospira, Species —",table row r414,0
same,"Abundance: Family Planococcaceae, Genus Sporosarcina, Species —",table row r415,0
same,"Abundance: Family Erysipelotrichaceae, Genus Other, Species Other",table row r417,7
same,"Abundance: Family Ruminococcaceae, Genus Ruminococcus, Species —",table row r419,0
same,"Abundance: Family Coriobacteriaceae, Genus Adlercreutzia, Species —",table row r423,0
same,"Abundance: Family Other, Genus Other, Species Other",table row r424,0
same,"Abundance: Family Ruminococcaceae, Genus Other, Species Other",table row r425,0
same,"Abundance: Family Erysipelotrichaceae, Genus —, Species —",table row r426,0
same,"Abundance: Family Deferribacteraceae, Genus Mucispirillum, Species schaedleri",table row r427,0
same,"Abundance: Family Methylobacteriaceae, Genus Methylobacterium, Species Other",table row r428,0

# Reference: patent US20240374631A1, “A COMPOSITION FOR IMPROVING GUT MICROBIOTA, BEHAVIOURAL PATTERN, ALPHA-SYNUCLEIN LEVELS, SLEEP PATTERN AND/OR SERUM MELATONIN” (GN Corporation Co Ltd, priority 2021, published 2024)
